Assay results reported in patent publication US20090247579A1, “2-[3H-THIAZOL-2-YLIDINEMETHYL]PYRIDINES AND RELATED COMPOUNDS AND THEIR USE” (CANCER RESEARCH TECHNOLOGY LIMITED, priority 2006, published 2009).

Columns and labels:
A2780 = assay: Modified MTT assay, A2780 (parental, MMR proficient); format: cell-based, human; conditions: Homo sapiens, A2780, 24 hour drug exposure
Description: (§1) Relative drug sensitivities (Resistance Factor) and IC50 values were determined by a modified MTT assay (see, e.g., Mosmann, 1983; Plumb et al., 1989), as described below: • (1) Trypsinise a sub-confluent monolayer culture and collect cells in growth medium containing serum. Centrifuge the suspension (200 g, 5 minutes) to pellet cells, re-suspend in growth medium, and count cells. Dilute cells to a density of 5×10^3 cells/mL allowing 60 mL of cell suspension for 3 microtitre plates. Transfer cell suspension to a 10 cm petri dish, and with a multichannel pipette add 200 μL to each well of the central 10 columns of a flat bottomed 96-well plate (80 wells per plate) starting with column 2 and ending with column 11. Add 200 μL of growth medium to the 8 wells in columns 1 and 12. Put the plates in a plastic box and incubate in a humidified atmosphere at 37° C. for 2-3 days so that cells are in the exponential phase of growth for drug addition. • (2) Prepare a serial 5-fold dilution of the cytotoxic drug in growth medium to give 8 concentrations. Pipette 6 mL of growth medium in to each of 7 universal containers (30 mL). Prepare 10 mL of the highest concentration of the drug and transfer 1.5 mL of this solution to the first universal container. Mix and then transfer 1.5 mL to the next universal container. Continue until the seventh universal container is reached. The concentrations should be chosen so that the highest concentration kills most of the cells and the lowest kills none of the cells. Normally, three plates are used for each drug to give triplicate determinations within one experiment. • (3) The medium is removed from all the wells in columns 2 to 11. This can be achieved with a hypodermic needle attached to a suction line. Cells in the 8 wells in columns 2 and 11 are fed with 200 μL of fresh growth medium. The drug solutions are transferred to 10 cm petri dishes and 200 μL added to all 8 wells of a column. For ease of analysis arrange the drug solutions in order so that the highest is in column 3 down to the lowest in column 10. Plates are returned to the plastic box and incubated for 24 hours. • (4) At the end of the drug exposure period, the medium is removed from all wells containing cells and the cells are fed with 200 μL of fresh medium. • (5) The plates are fed daily for two more days. • (6) The plates are fed with 200 μL of fresh medium and 50 μL of the MTT solution (5 mg/mL in PBS) is added to all wells in columns 1 to 11. Plates are wrapped in aluminium foil and incubated for 4 hours in a humidified atmosphere at 37° C. • (7) The medium and MTT are then removed from the wells and the purple MTT-formazan crystals dissolved by addition of 200 μL of DMSO to all wells in columns 1 to 11. Glycine buffer is added (25 μL per well) to all wells containing DMSO. • (8) Absorbance is recorded at 570 nm with the wells in column 1, which contained medium and MTT but no cells used as a blank. • (9) A graph is plotted of absorbance (y-axis) against drug concentration (x-axis). The mean absorbance reading from the wells in columns 2 and 11 is used as the control absorbance and the IC50 concentration is determined as the drug concentration required to reduce the absorbance to half that of the control. IC10 or IC90 values can be determined in the same manner.
(§2) A2780/cp70 and A2780/mcp1 have lost expression of MLH1, have lost MMR activity, and have microsatellite instability compared to A2780. The CpG island at the MLH1 gene is methylated in A2780/cp70 and A2780/mcp1, but not A2780.
(§3) IC50 values (μM) for A2780, A2780/cp70, and A2780/mcp1 and Resistance Factors (RF) (the fold difference in resistance from parental A2780) were determined based on the MTT assay described above for several compounds of the present invention (including, e.g., MMR201).

A2780/cp70 = assay: Modified MTT assay, A2780/cp70 (cisplatin resistant, MMR deficient); format: cell-based, human; conditions: 24 hour drug exposure; for IC50: Homo sapiens, A2780/CP70, MTT; for A2780/cp70 RF (Resistance Factor): fold difference in resistance from parental A2780
Description: as §1, §2, §3

A2780/mcp1 = assay: Modified MTT assay, A2780/mcp1 (cisplatin resistant, MMR deficient); format: cell-based, human; conditions: 24 hour drug exposure; for IC50: Homo sapiens, A2780/mcp1, MTT; for A2780/mcp1 RF (Resistance Factor): fold difference in resistance from parental A2780
Description: as §1, §2, §3

[1] = test system: A1 (MLH1+ve, MMR proficient); assay: Modified MTT assay, A1 line (A2780/cp70 + chromosome 3, MLH1 +ve); format: cell-based, human; conditions: Homo sapiens, A2780/CP70, read-out: A1 or E1 MLH1 +ve MMR proficient IC50
Description: as §1
(§4) A1, E1, and A2 are derived by transfer of human chromosome 3 into A2780/cp70. MLH1 is located on chromosome 3.
(§5) IC50 values (μM) for A1 (MLH1+ve, MMR proficient) or E1 (MLH1+ve, MMR proficient) and A2 (MLH1−ve, MMR deficient) lines and Resistance Factors (RF) (the fold difference in resistance between the A2 line, MMR deficient, and the A1 line, MMR proficient) were determined based on the MTT assay described above for several compounds of the present invention (including, e.g., MMR201). Compounds showing increased activity against the MLH1 deficient A2 line compared to the MLH1 proficient A1 or E1 line have RF values less than 1.

[2] = test system: A2 (MLH1−ve, MMR deficient); assay: Modified MTT assay, A2 line (A2780/cp70 + chromosome 3, MLH1 -ve); format: cell-based, human; conditions: for IC50: Homo sapiens, A2780/CP70, A2 line
Description: as §1, §4, §5

[3] = test system: E1 (MLH1+ve, MMR proficient); assay: Modified MTT assay, E1 line (A2780/cp70 + chromosome 3, MLH1 +ve); format: cell-based; conditions: Homo sapiens, read-out: A1 or E1 MLH1 +ve MMR proficient IC50
Description: Relative drug sensitivities (Resistance Factor) and IC50 values were determined by a modified MTT assay (see, e.g., Mosmann, 1983; Plumb et al., 1989), as described below: • (1) Trypsinise a sub-confluent monolayer culture and collect cells in growth medium containing serum. Centrifuge the suspension (200 g, 5 minutes) to pellet cells, re-suspend in growth medium, and count cells. Dilute cells to a density of 5×10^3 cells/mL allowing 60 mL of cell suspension for 3 microtitre plates. Transfer cell suspension to a 10 cm petri dish, and with a multichannel pipette add 200 μL to each well of the central 10 columns of a flat bottomed 96-well plate (80 wells per plate) starting with column 2 and ending with column 11. Add 200 μL of growth medium to the 8 wells in columns 1 and 12. […] Glycine buffer is added (25 μL per well) to all wells containing DMSO. • (8) Absorbance is recorded at 570 nm with the wells in column 1, which contained medium and MTT but no cells used as a blank. • (9) A graph is plotted of absorbance (y-axis) against drug concentration (x-axis). The mean absorbance reading from the wells in columns 2 and 11 is used as the control absorbance and the IC50 concentration is determined as the drug concentration required to reduce the absorbance to half that of the control. IC10 or IC90 values can be determined in the same manner. […]

[4] = fold difference in resistance between A2 (MMR deficient) and A1 (MMR proficient)

Row | IC50 (A2780/cp70) [nM] | IC50 (A2780/mcp1) [nM] | IC50 [1] [nM] | IC50 [2] [nM] | IC50 [3] [nM] | Compound | IC50 (A2780) [nM] | A2780/cp70 RF (Resistance Factor) (A2780/cp70) | A2780/mcp1 RF (Resistance Factor) (A2780/mcp1) | RF (Resistance Factor) [2, 4] | RF (Resistance Factor) ([2]; A2 (MMR deficient) versus E1 (MMR proficient))
1 | 7100 ± 370 | 12900 ± 1000 | 2830 ± 460 | 4150 ± 800 |  | CC[n+]1ccccc1/C=C1\SC=CN1C.[I-] [MMR302] | 13600 ± 1550 | 0.52 | 0.95 | 1.5 | 
2 | 435 ± 22 | 481 ± 48 | 4100 ± 450 | 681 ± 76 |  | CC[n+]1c(/C=C2\SC=CN2C)ccc2ccccc21.[I-] [MMR212] | 1670 ± 370 | 0.26 | 0.29 | 0.17 | 
3 | 325 ± 44 | 358 ± 103 | 2550 ± 180 | 530 ± 18 |  | CC[n+]1c(/C=C2\SC=C(C)N2C)ccc2ccccc21.[I-] [MMR213] | 1230 ± 51 | 0.26 | 0.29 | 0.21 | 
4 | 40 ± 4 | 38 ± 6 | 144 ± 9 | 27 ± 3 |  | CC[n+]1c(/C=C2\Sc3oc4ccccc4c3N2C)ccc2ccccc21.[I-] [MMR211] | 69 ± 7 | 0.58 | 0.55 | 0.19 | 
5 | 18000 ± 1300 | 35600 ± 1960 | 54200 ± 10800 | 16100 ± 2540 |  | CC[n+]1ccccc1/C=C1\SC=C(C)N1C.[I-] [MMR304] | 64500 ± 3910 | 0.28 | 0.55 | 0.30 | 
6 | 932 ± 95 | 716 ± 41 |  | 648 ± 85 | 937 ± 66 | CC[n+]1ccccc1/C=C1\Sc2oc3ccccc3c2N1C.[I-] [MMR307] | 752 ± 73 | 1.24 | 0.95 |  | 0.69
